Measured values: patent US8415336B2, “Cyclic (aza)indolizinecarboxamides, their preparation and their use as pharmaceuticals” (Sanofi, priority 2009, dated 2013)

target: T1, Recombinant human renin (Homo sapiens, UniProt P00797); experiment: Inhibition of renin (fluorogenic peptide substrate); assay type: biochemical; settings: recombinant human renin 5 nM, fluorogenic peptide substrate 10 μM, 2 h at room temperature, Tris buffer pH 8; compounds tested as the obtained salt
T1 construct: purchased Cayman 10006217
T1 sequence (P00797 67-406): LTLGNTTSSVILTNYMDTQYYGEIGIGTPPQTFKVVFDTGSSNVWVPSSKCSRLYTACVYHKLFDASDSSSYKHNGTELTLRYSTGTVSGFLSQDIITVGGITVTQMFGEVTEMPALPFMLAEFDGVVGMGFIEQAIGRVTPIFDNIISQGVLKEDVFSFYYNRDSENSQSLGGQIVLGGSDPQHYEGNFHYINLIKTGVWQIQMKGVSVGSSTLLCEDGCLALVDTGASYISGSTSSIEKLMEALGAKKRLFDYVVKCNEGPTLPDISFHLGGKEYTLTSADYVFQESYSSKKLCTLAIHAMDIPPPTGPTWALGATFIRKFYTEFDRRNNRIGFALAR
Method: Recombinant human renin (Cayman, no. 10006217) at a concentration of 5 nM was incubated with the test compounds at various concentrations and the synthetic substrate Dabcyl-γ-Abu-Ile-His-Pro-Phe-His-Leu-Val-Ile-His-Thr-EDANS (Bachem, no. M-2050; Dabcyl means the 4-(4-dimethylamino-phenylazo)-benzoyl group and EDANS means the amide with 5-[(2-aminoethyl)amino]-naphthalene-1-sulfonic acid) at a concentration of 10 μM for 2 h at room temperature in 0.05 M Tris buffer (pH 8) containing 0.1 M NaCl, 2.5 mM EDTA and 1.25 mg/ml bovine serum albumin. The increase in fluorescence, which is due to fluorescence resonance energy transfer, was recorded at an excitation wavelength of 330 nm and an emission wavelength of 485 nm in a microplate spectrofluorometer. Inhibitory concentrations IC50 were calculated from the percentage of inhibition of renin activity as a function of the concentration of the test compound. […] Representative IC50 values, which were determined with the compounds in the form of the obtained salt indicated in the examples above, are listed in Table 4.

Row | Compound | IC50 [nM]
1 | Cc1c(F)cccc1Cc1c(C(=O)N2CCN[C@@H](C)C2)c2ccccn2c1-c1ccccc1 [Example 15, [2-(3-Fluoro-2-methyl-benzyl)-3-phenyl-indolizin-1-yl)-((S)-3-methyl-piperazin-1-yl)-methanone] | 76
2 | Cc1c(F)cccc1Cc1c(C(=O)N2CCNCC2)c2ccccn2c1-c1ccccc1 [Example 11, [2-(3-Fluoro-2-methyl-benzyl)-3-phenyl-indolizin-1-yl]-piperazin-1-yl-methanone] | 23
3 | Cc1cccc(C)c1Cc1c(-c2ccccc2)c2ccccn2c1C(=O)N1CCN[C@H](C)C1 [Example 17, [2-(2,6-Dimethyl-benzyl)-1-phenyl-indolizin-3-yl)-((R)-3-methyl-piperazin-1-yl)-methanone] | 870
4 | COCCN(C)C(=O)C[C@H]1CN(C(=O)c2c(Cc3cccc(F)c3C)c(-c3ccccc3)c3cc(C(=O)N(C)C)cnn23)CCN1 [Example 46] | 10
5 | COC(=O)CCNC(=O)C[C@H]1CN(C(=O)c2c(Cc3cccc(F)c3C)c(-c3ccccc3)c3ccccn23)CCN1 [Example 30] | 31
6 | Cc1c(F)cccc1Cc1c(-c2ccccc2)c2ccccn2c1C(=O)N1CCN[C@@H](CC(=O)NCCS(C)(=O)=O)C1 [Example 31] | 21
7 | Cc1c(F)cccc1Cc1c(C2CCCCC2)c2ccccn2c1C(=O)N1CCNCC1 [Example 2, [1-Cyclohexyl-2-(3-fluoro-2-methyl-benzyl)-indolizin-3-yl]-piperazin-1-yl-methanone] | 38

Compounds with a lower IC50, results first:

Row | IC50 [nM] | Compound
8 | 3.4 | Cc1c(F)cccc1Cc1c(-c2cccc(F)c2)c2ccccn2c1C(=O)N1CCNCC1 [Example 20, [2-(3-fluoro-2-methyl-benzyl)-1-(3-fluoro-phenyl)-indolizin-3-yl]-piperazin-1-yl-methanone]
9 | 7.4 | Cc1c(F)cccc1Cc1c(-c2ccccc2)c2cc(C(=O)N3CCCCC3)cnn2c1C(=O)N1CCN[C@@H](CC(=O)NCCO)C1 [Example 39]
10 | 4.3 | Cc1c(F)cccc1Cc1c(-c2ccccc2)c2cccnn2c1C(=O)N1CCNCC1 [Example 9, [6-(3-Fluoro-2-methyl-benzyl)-5-phenyl-pyrrolo[1,2-b]pyridazin-7-yl]-piperazin-1-yl-methanone]
